Results on 2 compounds are retold here after patent publication US11179326B2, “Short duration depot formulations” (Durect Corporation, priority 2002, dated 2021).

Where a name gives a salt, the structure may show the parent alone.

Series [1] can be described thus: Saturation concentration in de-ionized water. The format is physicochemical. The settings on record: DI water. The protocol: Bupivacaine hydrochloride (Sigma-Aldrich Corporation, St. Louis, MO) was dissolved in de-ionized (DI) water at a concentration of 40 mg/ml (saturation). A calculated amount of sodium hydroxide (1 N solution) was added to the solution and the pH of the final mixtures was adjusted to 10 to precipitate the BP base. The precipitated product was filtered, and further washed with DI water for at least three times. The precipitated product was dried at approximately 40° C. in vacuum for 24 h.

For series [2] the following is noted: reported value; cited from earlier work.

On to `CCCCN1CCCCC1C(=O)Nc1c(C)cccc1C` (centres unmarked) [Bupivacaine hydrochloride], for which the “concentration in de-ionized water (saturation)” value in series [1] is 40000 µg/mL.

In the case of `CC(=O)OCC(COC(C)=O)OC(C)=O` [triacetin], the solubility in water in series [2] is reported as 7.17 grams in 100 ml of water.
